In patent publication US12595253B2, “Benzamides of pyrazolylamino-pyrimidinyl derivatives, and compositions and methods thereof” (LYNK PHARMACEUTICALS CO. LTD., priority 2019, dated 2026) one finds IC50 data, which are given here for 31 compounds.

The target in one assay is T1, JAK2 (Homo sapiens, UniProt O60674).
T1 construct: purchased Carna Biosciences
The assay can be described thus: JAK2 microfluidic kinase assay (Caliper EZ Reader II, FAM labeled peptide substrate). In kind it is biochemical. The protocol: (§1) Compounds were tested against JAK1, JAK2, JAK2V617F and TYK2. Assay Formats: JAK activity was determined in the reaction buffer 50 mM HEPES, 0.01% Brij35, 10 mM MgCl2, 2 mM DTT by a microfluidic assay. The phosphorylation of a FAM labeled peptide substrate was monitored in the Caliper EZ Reader II (Perkin Elmer). The assay condition for each batch of enzyme (Carna Biosciences) was optimized to obtain 10% conversion rate of peptide substrate. The test compounds were dissolved in DMSO to a stock concentration of 10 mM. 3-fold serially diluted compounds with top concentration of 5 μM were pre-incubated with JAK1, JAK2, JAK2V617F or TYK2 at indicated concentrations for 10 min at ambient temperature. The final DMSO concentration of assay mixture was 1%. […] The reaction was stopped by adding 50 mM EDTA. […] The percent inhibition was calculated by the following formula. % Inhibition=(Conversionmax−Conversionsample)/(Conversionmax−Conversionmin)*100 • Conversionmax means the conversion rate in the positive well without addition of compound • Conversionmin means the conversion rate in the well without addition of enzyme • Conversionsample means the conversion rate of test compounds The dose-response (percent inhibition) curve was plotted and IC50 values were determined by GraphPad software.

In a further assay the target is T2, JAK1 (Homo sapiens, UniProt P23458).
T2 construct: purchased Carna Biosciences
The assay can be described thus: JAK1 microfluidic kinase assay (Caliper EZ Reader II, FAM labeled peptide substrate). The class given is biochemical. Conditions: IC50 JAK1 (5 nM) (1 m MATP), JAK1 5 nM, 1 mM ATP. How it is done: as §1

[1] abbreviates: IC50 JAK2 ([…]) (1 mM ATP), 1 mM ATP.
The mark [2] stands for this setting: IC50 JAK2 ([…]) (Km ATP), Km ATP.

SMILES strings stand for the structures.

T1 sequence (O60674 whole entry): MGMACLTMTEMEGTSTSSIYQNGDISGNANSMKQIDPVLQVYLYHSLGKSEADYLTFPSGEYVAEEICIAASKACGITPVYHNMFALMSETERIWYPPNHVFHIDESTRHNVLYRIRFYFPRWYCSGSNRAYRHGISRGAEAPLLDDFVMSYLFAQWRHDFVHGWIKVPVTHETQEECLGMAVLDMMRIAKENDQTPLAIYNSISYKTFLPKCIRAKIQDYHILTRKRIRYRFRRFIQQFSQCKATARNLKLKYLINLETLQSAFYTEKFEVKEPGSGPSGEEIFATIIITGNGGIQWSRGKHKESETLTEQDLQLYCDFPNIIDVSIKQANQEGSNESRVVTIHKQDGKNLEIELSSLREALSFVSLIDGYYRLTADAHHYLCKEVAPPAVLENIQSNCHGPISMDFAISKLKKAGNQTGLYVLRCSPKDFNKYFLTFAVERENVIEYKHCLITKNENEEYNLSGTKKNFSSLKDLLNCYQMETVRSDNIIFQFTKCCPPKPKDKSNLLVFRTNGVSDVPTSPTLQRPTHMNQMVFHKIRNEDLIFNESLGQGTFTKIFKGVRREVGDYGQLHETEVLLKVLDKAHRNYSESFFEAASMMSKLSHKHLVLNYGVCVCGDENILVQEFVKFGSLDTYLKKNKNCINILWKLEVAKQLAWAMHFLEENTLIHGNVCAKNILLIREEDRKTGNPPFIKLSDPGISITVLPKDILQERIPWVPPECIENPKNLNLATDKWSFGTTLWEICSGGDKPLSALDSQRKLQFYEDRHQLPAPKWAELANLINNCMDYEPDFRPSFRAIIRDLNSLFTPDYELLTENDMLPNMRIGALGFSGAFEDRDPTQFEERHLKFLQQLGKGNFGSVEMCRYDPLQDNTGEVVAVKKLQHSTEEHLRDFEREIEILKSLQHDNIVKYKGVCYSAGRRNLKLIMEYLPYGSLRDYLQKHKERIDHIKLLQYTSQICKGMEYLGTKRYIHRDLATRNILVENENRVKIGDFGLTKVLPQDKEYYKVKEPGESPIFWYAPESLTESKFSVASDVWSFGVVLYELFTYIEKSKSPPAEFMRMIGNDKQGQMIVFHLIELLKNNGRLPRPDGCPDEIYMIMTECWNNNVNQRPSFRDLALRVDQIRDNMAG
T2 sequence (P23458 whole entry): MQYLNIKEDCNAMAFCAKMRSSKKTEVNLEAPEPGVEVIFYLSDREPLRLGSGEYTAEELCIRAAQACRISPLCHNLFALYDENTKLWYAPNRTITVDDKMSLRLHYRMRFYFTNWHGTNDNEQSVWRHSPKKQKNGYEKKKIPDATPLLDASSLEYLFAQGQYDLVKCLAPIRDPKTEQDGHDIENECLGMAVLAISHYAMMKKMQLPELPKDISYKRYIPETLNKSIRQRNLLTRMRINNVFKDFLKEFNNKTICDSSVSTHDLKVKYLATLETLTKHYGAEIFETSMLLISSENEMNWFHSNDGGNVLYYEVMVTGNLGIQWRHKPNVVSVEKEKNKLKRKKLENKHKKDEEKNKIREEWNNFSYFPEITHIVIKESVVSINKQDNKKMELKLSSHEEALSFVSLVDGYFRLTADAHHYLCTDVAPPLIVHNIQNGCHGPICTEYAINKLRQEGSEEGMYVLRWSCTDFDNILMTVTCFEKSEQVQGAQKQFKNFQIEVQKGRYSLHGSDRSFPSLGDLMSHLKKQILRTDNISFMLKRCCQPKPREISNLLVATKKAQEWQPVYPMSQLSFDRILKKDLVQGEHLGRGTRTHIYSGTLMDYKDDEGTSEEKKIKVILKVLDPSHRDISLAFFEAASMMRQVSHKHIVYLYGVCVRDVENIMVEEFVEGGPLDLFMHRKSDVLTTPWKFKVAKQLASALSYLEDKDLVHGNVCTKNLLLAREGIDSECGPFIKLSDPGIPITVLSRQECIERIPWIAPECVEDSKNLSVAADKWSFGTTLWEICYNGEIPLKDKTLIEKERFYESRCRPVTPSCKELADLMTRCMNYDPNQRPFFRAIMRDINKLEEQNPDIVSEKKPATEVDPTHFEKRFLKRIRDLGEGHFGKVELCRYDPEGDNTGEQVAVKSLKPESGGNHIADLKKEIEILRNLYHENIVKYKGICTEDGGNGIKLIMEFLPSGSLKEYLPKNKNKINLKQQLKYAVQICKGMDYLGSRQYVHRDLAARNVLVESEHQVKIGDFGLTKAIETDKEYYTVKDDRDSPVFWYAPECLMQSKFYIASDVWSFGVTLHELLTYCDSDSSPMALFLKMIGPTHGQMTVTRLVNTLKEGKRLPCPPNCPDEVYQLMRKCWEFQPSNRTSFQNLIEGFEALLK

For orientation: IC50 means the concentration at which inhibition is half-maximal. Low values mean higher potency, high ones lower potency. On to `CC[C@@H](C#N)NC(=O)c1ccc(-c2nc(Nc3cnn(C4CCC(O)CC4)c3)ncc2C)cc1` (stereo partly drawn) [Example 205, (S)—N-(1-cyanopropyl)-4-(2-((1-(4-hydroxycyclohexyl)-1H-pyrazol-4-yl)amino)-5-methylpyrimidin-4-yl)benzamide], for which the IC50 was 0.52 nM against JAK2 (setting [1]) and 9.06 nM against JAK1.

Compound `Cn1cc(Nc2ncc(F)c(-c3ccc(C(=O)NCC#N)c(F)c3)n2)cn1` [Example 36, N-(Cyanomethyl)-2-fluoro-4-(5-fluoro-2-((1-methyl-1H-pyrazol-4-yl)amino)pyrimidin-4-yl)benzamide] registered an IC50 against JAK2 (setting [2]) of 22 nM.

Take `N#CC1CN(C(=O)c2ccc(-c3ccnc(Nc4cnn(C5CC5)c4)n3)cc2F)C1` [Example 141, 1-(4-(2-((1-Cyclopropyl-1H-pyrazol-4-yl)amino)pyrimidin-4-yl)-2-fluorobenzoyl)azetidine-3-carbonitrile]: half-maximal inhibition against JAK2 (setting [2]) (IC50) was put at 40.4 nM.

Regarding `Cc1cnc(Nc2cnn(C)c2)nc1-c1ccc(C(=O)NCCN(C)C)cc1` [Example 105, N-(2-(Dimethylamino)ethyl)-4-(5-methyl-2-((1-methyl-1H-pyrazol-4-yl)amino)pyrimidin-4-yl)benzamide], the IC50 on JAK2 (setting [2]) worked out at 55.9 nM.

For `C[C@@H](C#N)NC(=O)c1ccc(-c2nc(Nc3cnn(C4CC4)c3)ncc2F)cc1F` [Example 117, (S)—N-(1-cyanoethyl)-4-(2-((1-cyclopropyl-1H-pyrazol-4-yl)amino)-5-fluoropyrimidin-4-yl)-2-fluorobenzamide], the IC50 on JAK2 (setting [2]) was 19 nM.

At JAK2 (setting [2]), `Cc1cnc(Nc2cnn(C)c2)nc1-c1ccc(C(=O)N2CC(C#N)C2)cc1` [Example 15, 1-(4-(5-Methyl-2-((1-methyl-1H-pyrazol-4-yl)amino)pyrimidin-4-yl)benzoyl)azetidine-3-carbonitrile] had an IC50 of 8.6 nM.

`Cc1cnc(Nc2cnn(C)c2)nc1-c1ccc(C(=O)N2CC(C#N)C2)c(F)c1` [Example 103, 1-(2-Fluoro-4-(5-methyl-2-((1-methyl-1H-pyrazol-4-yl)amino)pyrimidin-4-yl)benzoyl)azetidine-3-carbonitrile] had an IC50 against JAK2 (setting [2]) of 12 nM.

The compound `Cc1cnc(Nc2cnn(C)c2)nc1-c1ccc(C(=O)NCCO)cc1` [Example 8, N-(2-Hydroxyethyl)-4-(5-methyl-2-((1-methyl-1H-pyrazol-4-yl)amino)pyrimidin-4-yl)benzamide] gave an IC50 against JAK2 (setting [2]) of 14 nM.

`Cc1cnc(Nc2cnn(C3CCN(C(=O)C4(C)COC4)CC3)c2)nc1-c1ccc(C(=O)NCC#N)cc1` [Example 118, N-(Cyanomethyl)-4-(5-methyl-2-((1-(1-(3-methyloxetane-3-carbonyl)piperidin-4-yl)-1H-pyrazol-4-yl)amino)pyrimidin-4-yl)benzamide]: the IC50 on JAK2 (setting [2]) is less than 0.25 nM.

At JAK2 (setting [2]), `CC(=O)N1CCC(n2cc(Nc3ncc(C)c(-c4ccc(C(=O)N5CC(C#N)C5)cc4)n3)cn2)CC1` [Example 102, 1-(4-(2-((1-(1-Acetylpiperidin-4-yl)-1H-pyrazol-4-yl)amino)-5-methylpyrimidin-4-yl)benzoyl)azetidine-3-carbonitrile] came in with an IC50 of 2.6 nM.

In turn, `N#CCNC(=O)c1ccc(-c2nc(Nc3cnn(C4CC4)c3)ncc2C(F)F)cc1F` [Example 109, N-(cyanomethyl)-4-(2-((1-cyclopropyl-1H-pyrazol-4-yl)amino)-5-(difluoromethyl)pyrimidin-4-yl)-2-fluorobenzamide] returned an IC50 at JAK2 (setting [1]) of 457 nM.

In turn, `Cc1cnc(Nc2cnn(CC(F)(F)F)c2)nc1-c1ccc(C(=O)N2CC(C#N)C2)cc1` [Example 5, 1-(4-(5-Methyl-2-((1-(2,2,2-trifluoroethyl)-1H-pyrazol-4-yl)amino)pyrimidin-4-yl)benzoyl)azetidine-3-carbonitrile] yielded an IC50 against JAK2 (setting [2]) of 16.6 nM.

`Cc1cnc(Nc2cnn(C)c2)nc1-c1ccc(C(=O)NC(C)C#N)cc1` (centres unmarked) [Example 17, N-(1-Cyanoethyl)-4-(5-methyl-2-((1-methyl-1H-pyrazol-4-yl)amino)pyrimidin-4-yl)benzamide] yielded an IC50 against JAK2 (setting [2]) of 5.15 nM.

On JAK2 (setting [2]), `Cc1cnc(Nc2cnn(C)c2)nc1-c1ccc(C(=O)NC2CC(O)C2)cc1` (centres unmarked) [Example 9, N-(3-Hydroxycyclobutyl)-4-(5-methyl-2-((1-methyl-1H-pyrazol-4-yl)amino)pyrimidin-4-yl)benzamide] yielded an IC50 of 17.2 nM.

At JAK1, `N#CCNC(=O)c1ccc(-c2nc(Nc3cnn(CC(N)=O)c3)ncc2Cl)cc1` [Example 42, 4-(2-((1-(2-amino-2-oxoethyl)-1H-pyrazol-4-yl)amino)-5-chloropyrimidin-4-yl)-N-(cyanomethyl)benzamide] showed a half-maximal inhibitory concentration (IC50) of 90.8 nM.

For `N#CC1CN(C(=O)c2ccc(-c3nc(Nc4cnn(C5CC5)c4)ncc3Cl)cc2F)C1` [Example 136, 1-(4-(5-Chloro-2-((1-cyclopropyl-1H-pyrazol-4-yl)amino)pyrimidin-4-yl)-2-fluorobenzoyl)azetidine-3-carbonitrile], inhibition against JAK2 (setting [2]) was half-maximal at 9.2 nM (IC50).

Consider `C[C@@H](C#N)NC(=O)c1ccc(-c2ccnc(Nc3cnn(C4CC4)c3)n2)cc1F` [Example 142, (S)—N-(1-Cyanoethyl)-4-(2-((1-cyclopropyl-1H-pyrazol-4-yl)amino)pyrimidin-4-yl)-2-fluorobenzamide], for which it took 12.6 nM to reach half-maximal inhibition against JAK2 (setting [2]) (IC50).

In the case of `COc1cc(-c2nc(Nc3cnn(C)c3)ncc2C)ccc1C(=O)NCC#N` [Example 33, N-(cyanomethyl)-2-methoxy-4-(5-methyl-2-((1-methyl-1H-pyrazol-4-yl)amino)pyrimidin-4-yl)benzamide], half-maximal inhibition against JAK2 (setting [2]) (IC50) required 41 nM.

At JAK2 (setting [2]), `Cc1cnc(Nc2cnn(C3CCN(CC#N)CC3)c2)nc1-c1ccc(C(=O)N2CC(C#N)C2)cc1` [Example 23, 1-(4-(2-((1-(1-(Cyanomethyl)piperidin-4-yl)-1H-pyrazol-4-yl)amino)-5-methylpyrimidin-4-yl)benzoyl)azetidine-3-carbonitrile] gave a 50% inhibitory concentration (IC50) of 2.9 nM.

With `N#CC1CN(C(=O)c2ccc(-c3nc(Nc4cnn(C5CC5)c4)ncc3F)cc2F)C1` [Example 127, 1-(4-(2-((1-Cyclopropyl-1H-pyrazol-4-yl)amino)-5-fluoropyrimidin-4-yl)-2-fluorobenzoyl)azetidine-3-carbonitrile], the IC50 against JAK2 (setting [2]) amounted to 53.5 nM.

`N#CCNC(=O)c1ccc(-c2nc(Nc3cnn(C4CC4)c3)ncc2F)cc1F` [Example 116, N-(Cyanomethyl)-4-(2-((1-cyclopropyl-1H-pyrazol-4-yl)amino)-5-fluoropyrimidin-4-yl)-2-fluorobenzamide] yielded an IC50 on JAK2 (setting [2]) of 10.6 nM.

At JAK2 (setting [2]), `N#CCNC(=O)c1ccc(-c2nc(Nc3cnn(CC(F)F)c3)ncc2F)cc1F` [Example 131, N-(cyanomethyl)-4-(2-((1-(2,2-difluoroethyl)-1H-pyrazol-4-yl)amino)-5-fluoropyrimidin-4-yl)-2-fluorobenzamide] came in with an IC50 of 26.2 nM.

The compound `Cc1cnc(Nc2cnn(C3CC3)c2)nc1-c1ccc(C(=O)NCC#N)c(F)c1` [Example 128, N-(cyanomethyl)-4-(2-((1-cyclopropyl-1H-pyrazol-4-yl)amino)-5-methylpyrimidin-4-yl)-2-fluorobenzamide] registered an IC50 at JAK2 (setting [2]) of 1.5 nM.

Regarding `N#CCNC(=O)c1ccc(-c2nc(Nc3cnn(C4CC4)c3)ncc2Cl)cc1F` [Example 135, 4-(5-Chloro-2-((1-cyclopropyl-1H-pyrazol-4-yl)amino)pyrimidin-4-yl)-N-(cyanomethyl)-2-fluorobenzamide], the IC50 at JAK2 (setting [2]) was found to be 2.8 nM.

Compound `Cc1cnc(Nc2cnn(C3CC3)c2)nc1-c1ccc(C(=O)N2CC(C#N)C2)cc1` [Example 29, 1-(4-(2-((1-Cyclopropyl-1H-pyrazol-4-yl)amino)-5-methylpyrimidin-4-yl)benzoyl)azetidine-3-carbonitrile] showed an IC50 against JAK2 (setting [2]) of 5.49 nM.

With `N#CCNC(=O)c1ccc(-c2nc(Nc3cnn(CC(F)(F)F)c3)ncc2F)cc1F` [Example 130, N-(cyanomethyl)-2-fluoro-4-(5-fluoro-2-((1-(2,2,2-trifluoroethyl)-1H-pyrazol-4-yl)amino)pyrimidin-4-yl)benzamide], it took 58.1 nM to reach half-maximal inhibition on JAK2 (setting [2]) (IC50).

`Cc1cnc(Nc2cnn(CC#N)c2)nc1-c1ccc(C(=O)N2CC(C#N)C2)cc1` [Example 30, 1-(4-(2-((1-(Cyanomethyl)-1H-pyrazol-4-yl)amino)-5-methylpyrimidin-4-yl)benzoyl)azetidine-3-carbonitrile] gave an IC50 on JAK2 (setting [2]) of 11.5 nM.

On JAK2 (setting [2]), `Cn1cc(Nc2nccc(-c3ccc(C(=O)NCC#N)cc3F)n2)cn1` [Example 35, N-(Cyanomethyl)-3-fluoro-4-(2-((1-methyl-1H-pyrazol-4-yl)amino)pyrimidin-4-yl)benzamide] showed an IC50 of 34.9 nM.

Turning to `Cc1cnc(Nc2cnn(C)c2)nc1-c1ccc(C(=O)NCCCO)cc1` [Example 7, N-(3-Hydroxypropyl)-4-(5-methyl-2-((1-methyl-1H-pyrazol-4-yl)amino)pyrimidin-4-yl)benzamide], on JAK2 (setting [2]), the midpoint of inhibition, the IC50, lay at 10.1 nM.

As for `Cc1cnc(Nc2cnn(C)c2)nc1-c1ccc(C(=O)NCC#N)c(F)c1` [Example 100, N-(Cyanomethyl)-2-fluoro-4-(5-methyl-2-((1-methyl-1H-pyrazol-4-yl)amino)pyrimidin-4-yl)benzamide], on JAK2 (setting [2]), the midpoint of inhibition, the IC50, lay at 4.34 nM.

`Cc1cnc(Nc2cnn(C)c2)nc1-c1ccc(C(=O)NCC(O)CO)cc1` (centres unmarked) [Example 14, N-(2,3-Dihydroxypropyl)-4-(5-methyl-2-((1-methyl-1H-pyrazol-4-yl)amino)pyrimidin-4-yl)benzamide] yielded an IC50 against JAK2 (setting [2]) of 14.3 nM.
